Experimental data as given in PMC11090339, “Synthesis, molecular docking study and biological evaluation of new pyrrole scaffolds as potential antitubercular agents for dual targeting of enoyl ACP reductase and dihydrofolate reductase” (PLOS ONE, 2024).
In brackets after ≈: the same amount, converted by molar mass.

What was measured:
[1] = test system: M. tuberculosis H37Rv; experiment: Antitubercular activity, Microplate Alamar Blue test (MABA); type: cell-based; settings: Mycobacterium tuberculosis
[2] = test system: S. aureus (Gram-positive); experiment: Antibacterial activity, broth microdilution method; type: cell-based; settings: Staphylococcus aureus, read-out: S. aureus (Gram +ve) MIC
[3] = test system: E. coli (Gram-negative); experiment: Antibacterial activity, broth microdilution method; type: cell-based; settings: Escherichia coli, read-out: E. coli (Gram–ve) MIC
[4] = molecular target: MtDHFR (Mycobacterium tuberculosis, UniProt P9WNX1); experiment: biochemical; type: biochemical; settings: for MtDHFR inhibition compared with trimethoprim: in words
Chain of MtDHFR (P9WNX1 whole entry): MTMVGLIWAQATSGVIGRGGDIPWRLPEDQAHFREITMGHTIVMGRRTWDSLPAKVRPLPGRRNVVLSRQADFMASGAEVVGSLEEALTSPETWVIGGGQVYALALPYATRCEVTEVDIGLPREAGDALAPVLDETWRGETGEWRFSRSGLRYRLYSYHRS

[5] = test system: Mammalian Vero cell-lines; experiment: MTT-based cytotoxicity activity; settings: Chlorocebus sabaeus, means ± SEM of three independent experiments, read-out: IC50 MV cell-lines
[6] = molecular target: InhA (Mycobacterium tuberculosis, UniProt P9WGR1); experiment: Enoyl ACP reductase (InhA) inhibition; type: biochemical
Chain of InhA (P9WGR1 whole entry, looked up): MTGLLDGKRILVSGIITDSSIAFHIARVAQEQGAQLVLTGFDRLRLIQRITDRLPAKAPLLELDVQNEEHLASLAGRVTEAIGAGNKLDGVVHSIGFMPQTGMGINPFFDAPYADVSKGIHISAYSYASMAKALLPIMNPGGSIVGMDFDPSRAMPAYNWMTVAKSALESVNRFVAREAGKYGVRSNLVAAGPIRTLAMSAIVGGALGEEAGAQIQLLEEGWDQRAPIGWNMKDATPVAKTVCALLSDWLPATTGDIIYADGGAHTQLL

[7] = test system: A549 (lung adenocarcinoma) cell-lines; experiment: MTT-based cytotoxicity activity; type: cell-based; settings: Homo sapiens, means ± SEM of three independent experiments

Row | Structure (SMILES) | MIC [1] | MIC [2] | MIC [3] | IC50 [4] | MtDHFR inhibition compared with trimethoprim [4] | IC50 [5] | inhibition at 50 µM [6] | IC50 [7]
1 | Cc1ccc(OCC(=O)NNC(=O)c2ccc(-n3cccc3)cc2)cc1 [Compound 3b, 4-(1H-pyrrol-1-yl)-N’-(2-(p-tolyloxy)acetyl)benzohydrazide] | 12.5 µg/mL (≈ 35.8 µM) | 100 µg/mL (≈ 286 µM) | 6.25 µg/mL (≈ 17.9 µM) |  |  |  |  | 
2 | O=C(COc1cc(O)cc(O)c1)NNC(=O)c1ccc(-n2cccc2)cc1 [Compound 3g, N’-(2-(3,5-dihydroxyphenoxy)acetyl)-4-(1H-pyrrol-1-yl) benzohydrazide] | 3.12 µg/mL (≈ 8.49 µM) | 100 µg/mL (≈ 272 µM) | 1.6 µg/mL (≈ 4.36 µM) | 20 µM | greater inhibition characteristics than trimethoprim | 216 ± 0.5 µM | 63% | 216 ± 0.5 µM
3 | Cc1ccc(C)n1-c1ccc(C(=O)NNC(=O)COc2ccccc2Cl)cc1 [Compound 5j, N’-(2-(2-chlorophenoxy)acetyl)-4-(2,5-dimethyl-1H-pyrrol-1-yl) ben zohydrazide] | 3.12 µg/mL (≈ 7.84 µM) | 100 µg/mL (≈ 251 µM) | 6.25 µg/mL (≈ 15.7 µM) |  |  |  |  | 
4 | [H]/N=C(/N)N[C@H]1[C@H](O)[C@@H](O)[C@H](O[C@@H]2O[C@@H](C)[C@](O)(C=O)[C@H]2O[C@@H]2O[C@@H](CO)[C@H](O)[C@@H](O)[C@@H]2NC)[C@@H](N/C(N)=N\[H])[C@@H]1O [Streptomycin, reference compound] | 6.25 µg/mL (≈ 10.7 µM) |  |  |  |  |  |  | 
5 | Cc1ccc(OCC(=O)NNC(=O)c2ccc(-n3c(C)ccc3C)cc2)c(C)c1 [Compound 5d, 4-(2,5-dimethyl-1H-pyrrol-1-yl)-N’-(2-(2,4-dimethylphenoxy)acetyl) benzohydrazide] | 1.6 µg/mL (≈ 4.09 µM) | 100 µg/mL (≈ 255 µM) | 3.12 µg/mL (≈ 7.97 µM) | 56 µM | greater inhibition characteristics than trimethoprim | 226 ± 0.5 µM | 62% | 222 ± 0.5 µM
6 | Cc1cccc(OCC(=O)NNC(=O)c2ccc(-n3cccc3)cc2)c1 [Compound 3e, 4-(1H-pyrrol-1-yl)-N’-(2-(m-tolyloxy)acetyl)benzohydrazide] | 6.25 µg/mL (≈ 17.9 µM) | 100 µg/mL (≈ 286 µM) | 12.5 µg/mL (≈ 35.8 µM) |  |  |  |  | 
7 | Cc1cccc(OCC(=O)NNC(=O)c2ccc(-n3c(C)ccc3C)cc2)c1 [Compound 5e, 4-(2,5-dimethyl-1H-pyrrol-1-yl)-N’-(2-(m-tolyloxy)acetyl) benzohy drazide] | 1.6 µg/mL (≈ 4.24 µM) | 100 µg/mL (≈ 265 µM) | 3.12 µg/mL (≈ 8.27 µM) | 62 µM | greater inhibition characteristics than trimethoprim | 220 ± 0.2 µM | 66% | 219 ± 0.3 µM
8 | Cc1ccc(C)n1-c1ccc(C(=O)NNC(=O)COc2ccc(Cl)cc2)cc1 [Compound 5f, N’-(2-(4-chlorophenoxy)acetyl)-4-(2,5-dimethyl-1H-pyrrol-1-yl) ben zohydrazide] | 3.12 µg/mL (≈ 7.84 µM) | 100 µg/mL (≈ 251 µM) | 6.25 µg/mL (≈ 15.7 µM) |  |  |  |  | 
9 | Cc1cc(C)cc(OCC(=O)NNC(=O)c2ccc(-n3cccc3)cc2)c1 [Compound 3h, N’-(2-(3,5-dimethylphenoxy)acetyl)-4-(1H-pyrrol-1-yl) benzohydrazide] | 3.12 µg/mL (≈ 8.59 µM) | 100 µg/mL (≈ 275 µM) | 3.12 µg/mL (≈ 8.59 µM) | 19 µM | greater inhibition characteristics than trimethoprim | 219 ± 0.6 µM | 59% | 219 ± 0.1 µM
10 | O=C(COc1ccccc1O)NNC(=O)c1ccc(-n2cccc2)cc1 [Compound 3c, N’-(2-(2-hydroxyphenoxy)acetyl)-4-(1H-pyrrol-1-yl)benzohydrazide] | 3.12 µg/mL (≈ 8.88 µM) | 100 µg/mL (≈ 285 µM) | 3.12 µg/mL (≈ 8.88 µM) | 25 µM | greater inhibition characteristics than trimethoprim | 223 ± 0.7 µM | 46% | 224 ± 0.6 µM
11 | O=C(COc1ccc(Cl)cc1)NNC(=O)c1ccc(-n2cccc2)cc1 [Compound 3f, N’-(2-(4-chlorophenoxy)acetyl)-4-(1H-pyrrol-1-yl)benzohydrazide] | 6.25 µg/mL (≈ 16.9 µM) | 100 µg/mL (≈ 270 µM) | 12.5 µg/mL (≈ 33.8 µM) | 122 µM |  |  |  | 
12 | O=C(COc1cccc(O)c1)NNC(=O)c1ccc(-n2cccc2)cc1 [Compound 3i, N’-(2-(3-hydroxyphenoxy)acetyl)-4-(1H-pyrrol-1-yl)benzohydrazide] | 12.5 µg/mL (≈ 35.6 µM) | 100 µg/mL (≈ 285 µM) | 12.5 µg/mL (≈ 35.6 µM) |  |  |  |  | 
13 | Cc1ccc(C)n1-c1ccc(C(=O)NNC(=O)COc2cc(O)cc(O)c2)cc1 [Compound 5g, N’-(2-(3,5-dihydroxyphenoxy)acetyl)-4-(2,5-dimethyl-1H-pyrrol-1-yl) benzohydrazide] | 3.12 µg/mL (≈ 7.89 µM) | 100 µg/mL (≈ 253 µM) | 3.12 µg/mL (≈ 7.89 µM) |  |  |  |  | 
14 | Cc1ccc(OCC(=O)NNC(=O)c2ccc(-n3cccc3)cc2)c(C)c1 [Compound 3d, N’-(2-(2,4-dimethylphenoxy)acetyl)-4-(1H-pyrrol-1yl)benzohydrazide] | 3.12 µg/mL (≈ 8.59 µM) | 100 µg/mL (≈ 275 µM) | 1.6 µg/mL (≈ 4.4 µM) | 32 µM | greater inhibition characteristics than trimethoprim | 216 ± 0.4 µM | 48% | 212 ± 0.4 µM
15 | Cc1ccc(C)n1-c1ccc(C(=O)NNC(=O)COc2cccc(O)c2)cc1 [Compound 5i, 4-(2,5-dimethyl-1H-pyrrol-1-yl)-N’-(2-(3-hydroxyphenoxy)acetyl) benzohydrazide] | 6.25 µg/mL (≈ 16.5 µM) | 100 µg/mL (≈ 264 µM) | 3.12 µg/mL (≈ 8.22 µM) |  |  |  |  | 
16 | Cc1cc(C)cc(OCC(=O)NNC(=O)c2ccc(-n3c(C)ccc3C)cc2)c1 [Compound 5h, 4-(2,5-dimethyl-1H-pyrrol-1-yl)-N’-(2-(3,5-dimethylphenoxy)acetyl) benzohydrazide] | 3.12 µg/mL (≈ 7.97 µM) | 100 µg/mL (≈ 255 µM) | 3.12 µg/mL (≈ 7.97 µM) |  |  |  |  | 
17 | O=C(O)c1cn(C2CC2)c2cc(N3CCNCC3)c(F)cc2c1=O [Ciprofloxacin, reference compound] |  | 2 µg/mL (≈ 6.04 µM) | 2 µg/mL (≈ 6.04 µM) |  |  |  |  | 
18 | Cc1ccc(C)n1-c1ccc(C(=O)NNC(=O)COc2ccccc2O)cc1 [Compound 5c, 4-(2,5-dimethyl-1H-pyrrol-1-yl)-N’-(2-(2-hydroxyphenoxy)acetyl) benzohydrazide] | 12.5 µg/mL (≈ 32.9 µM) | 100 µg/mL (≈ 264 µM) | 12.5 µg/mL (≈ 32.9 µM) |  |  |  |  | 
19 | O=C(COc1ccccc1)NNC(=O)c1ccc(-n2cccc2)cc1 [Compound 3a, N’-(2-phenoxyacetyl)-4-(1H-pyrrol-1-yl) benzohydrazide] | 12.5 µg/mL (≈ 37.3 µM) | 100 µg/mL (≈ 298 µM) | 6.25 µg/mL (≈ 18.6 µM) |  |  |  |  | 
20 | Cc1ccc(OCC(=O)NNC(=O)c2ccc(-n3c(C)ccc3C)cc2)cc1 [Compound 5b, 4-(2,5-dimethyl-1H-pyrrol-1-yl)-N’-(2-(p-tolyloxy)acetyl) benzohydrazide] | 12.5 µg/mL (≈ 33.1 µM) | 100 µg/mL (≈ 265 µM) | 12.5 µg/mL (≈ 33.1 µM) |  |  |  |  | 
21 | NC(=O)c1cnccn1 [Pyrazinamide, reference compound] | 3.12 µg/mL (≈ 25.3 µM) |  |  |  |  |  |  | 
22 | Cc1ccc(C)n1-c1ccc(C(=O)NNC(=O)COc2ccccc2)cc1 [Compound 5a, 4-(2,5-dimethyl-1H-pyrrol-1-yl)-N’-(2-phenoxyacetyl) benzohydrazide] | 6.25 µg/mL (≈ 17.2 µM) | 100 µg/mL (≈ 275 µM) | 6.25 µg/mL (≈ 17.2 µM) | 98 µM |  |  | 26% | 
23 | O=C(COc1ccccc1Cl)NNC(=O)c1ccc(-n2cccc2)cc1 [Compound 3j, N’-(2-(2-chlorophenoxy)acetyl)-4-(1H-pyrrol-1-yl)benzohydrazide] | 12.5 µg/mL (≈ 33.8 µM) | 100 µg/mL (≈ 270 µM) | 6.25 µg/mL (≈ 16.9 µM) |  |  |  |  | 
24 | NNC(=O)c1ccncc1 [INH, Isoniazid, reference compound] |  |  |  |  |  | > 450 µM |  | > 450 µM
